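Tested at 5 concentrations; 48 h exposure; 96-well plates; endpoints linearly interpolated, else capped at highest concentration. TGI: concentration producing complete growth inhibition.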

What all share (assay): inhibition of tumour cell growth, NCI panel, 48 h
In assay [1] the test system is OVCAR-8 ovarian.
For assay [2], the system named is M14 melanoma.
Assay [3] has as its system NCI-H23 lung.
Assay [4] deals with CCRF-CEM leukemia.
Assay [5] has as its system ACHN renal.
In assay [6] the test system is COLO 205 colon.
The test system of assay [7] is K-562 leukemia.
The test system of assay [8] is SK-MEL-2 melanoma.
In assay [9] the test system is NCI-H522 lung.
The subject of assay [10] is SF-268 CNS.
Assay [11] has as its system RPMI-8226 leukemia.
The test system of assay [12] is PC-3 prostate.
Assay [13] relates to MDA-N.

Take `C#C[C@]1(O)CCC2C3CCc4cc(Oc5nc(F)nc(-c6c7cc8ccccc8cc7c7n6CCS7)n5)ccc4C3CCC21C` (some centres not stated): the TGI in assay [1] was greater than 100 µM; in assay [2], 96 µM; in assay [3], greater than 100 µM; in [4], greater than 100 µM; in assay [5], greater than 100 µM; in assay [6], 42.2 µM. The TGI in [7] was greater than 100 µM; in assay [8], 89.7 µM; in [9], 62.7 µM; in assay [10], greater than 100 µM; in assay [11], greater than 100 µM.

Consider `CNn1c(C)n[nH]c1=O`, for which the TGI in assay [1], in [12], in assay [2], in assay [3], in assay [4] and in assay [5] was greater than 100 µM each time. In addition, the TGI in [6], in assay [7], in [8], in assay [9], in assay [10] and in [11] was greater than 100 µM each time.

Consider `CCCN1CN(C(C(=O)N[C@@H]2C(=O)N3C(C(=O)O)=C(C)CSC23)c2ccc(O)cc2)CSC1=S` (some centres not stated), for which the TGI in [1], in [2], in [3], in [4], in assay [5] and in [6] was greater than 100 µM in each case. Also, the TGI in assay [7], in assay [8], in [9], in assay [10] and in [11] was greater than 100 µM throughout.

In the case of `CC1(C)CCC[C@@]2(C)C1CC[C@H]1CC(O)C3(C)CCC12C3` (some centres not stated), the TGI is 32.6 µM in [1]; 31 µM in assay [2]; 32.8 µM in assay [3]; 61.2 µM in assay [4]; 31.8 µM in assay [5]; greater than 100 µM in assay [7]. In addition, the TGI in assay [9] was found to be 30.3 µM; in [10], 40.9 µM; in assay [11] it was 72.6 µM.

In the case of `CCCn1c(SCC)c2cc3cc4ccccc4cc3cc2c1-c1nc(F)nc(F)n1`, the TGI in assay [1], in assay [2], in assay [3], in assay [4], in [5] and in assay [6] was greater than 100 µM each time. Further, the TGI in assay [7], in assay [8], in [9], in assay [10] and in assay [11] was greater than 100 µM throughout.

On to `Cn1c(Nc2ccccc2)c(C=Nc2ccccc2)c(=O)n(C)c1=O`, for which the TGI in assay [1], in [12], in [2], in [3], in assay [4] and in assay [7] was greater than 100 µM in each case. Besides, the TGI in assay [8], in assay [13], in [10] and in [11] was greater than 100 µM in each case.

In the case of `COc1cc(C=Nc2ccc(C(C)C)cc2)cc(OC)c1OC`, the TGI in assay [1], in [2], in [3], in assay [4], in assay [5] and in assay [6] was greater than 100 µM throughout. Also, the TGI was greater than 86.7 µM in assay [7]; greater than 100 µM in [8]; greater than 100 µM in assay [9]; greater than 100 µM in assay [10]; greater than 68.4 µM in assay [11].

In the case of `CCSC1=N/C(=C\c2ccco2)C(Cl)=N1`, the TGI in [1], in assay [12], in assay [2], in assay [3], in assay [4] and in [5] was greater than 100 µM in each case. The TGI in assay [6], in assay [7], in assay [8], in assay [13], in assay [10] and in assay [11] was greater than 100 µM in each case.

As to `CC(C)C1CCC/C=C/C=C/C=C/C=C/C(OC2OC(C)C(O)C(N)C2O)CC2OC(O)(CC(O)CC(O)C(O)CCC(=O)O1)CC(O)C2C(=O)O` (configuration not stated), the TGI in assay [1], in assay [2], in [4], in [5], in [6] and in [7] was greater than 52.5 µM in each case. Also, the TGI in assay [9], in assay [10] and in assay [11] was greater than 52.5 µM in each case.

For the molecule `O=C(O)c1ccc(Nc2nc3ccccc3nc2-c2cccs2)cc1`, the TGI in assay [1], in assay [12], in assay [3], in assay [4], in assay [5] and in assay [6] was greater than 100 µM each time. Moreover, the TGI in assay [7], in assay [9], in assay [13], in assay [10] and in assay [11] was greater than 100 µM in each case.

Consider `COc1ccc(NC(C)=O)cc1C1CCC(=O)N1` (configuration not stated), for which the TGI in [1], in [12], in [2], in [3], in [4] and in [5] was greater than 100 µM in each case. The TGI in assay [6], in assay [7], in assay [8], in assay [9], in [10] and in assay [11] was greater than 100 µM each time.

Turning to `N#Cc1c(Cl)c2ccccc2n2c1nc1ccccc12`, the TGI in [1] is 48.3 µM; in [12] it was greater than 100 µM; in assay [2], 69.8 µM; in assay [3] it was 53.8 µM; in assay [4] it was 47.2 µM; in assay [5], 32.6 µM. The TGI in assay [6] was 41.9 µM; in [7] it was greater than 100 µM; in assay [8] it was greater than 100 µM; in assay [13] it was greater than 100 µM; in assay [10] it was 83.7 µM; in [11], 72.7 µM.

Turning to `[N-]=[NH+]CC(=O)OC(COCc1ccccc1)COCc1ccccc1`, the TGI in [12], in [3], in [4], in assay [5], in [6] and in assay [7] was greater than 100 µM each time. Moreover, the TGI in [8], in assay [9], in [10] and in [11] was greater than 100 µM throughout.

Turning to `CC/C=C/C(=O)CC(O)(C(F)(F)F)C(F)(F)F`, the TGI in assay [1], in assay [2], in assay [3], in assay [4], in [5] and in assay [6] was greater than 100 µM in each case. Also, the TGI in assay [10] and in assay [11] was greater than 100 µM in each case.

On to `CC(=O)N(CCc1ccccc1)C(C#N)c1ccc(OCCCCCCCCCCOc2ccc(C(C#N)N(CCc3ccccc3)C(C)=O)cc2)cc1` (configuration not stated), for which the TGI in assay [1], in assay [12], in assay [2], in assay [3], in assay [4] and in assay [5] was greater than 100 µM each time. The TGI in assay [6] is greater than 100 µM; in [7], greater than 100 µM; in [8] it was greater than 100 µM; in assay [13] it was greater than 100 µM; in [10] it was 59.7 µM.

In the case of `COc1ccc(C2=C(N)c3c(OC)cccc3C2=O)cc1`, the TGI in [1], in assay [12], in assay [2], in [3], in [4] and in assay [6] was greater than 100 µM each time. Moreover, the TGI in assay [7], in assay [8], in assay [13], in assay [10] and in assay [11] was greater than 100 µM each time.

In the case of `O=C1CCC2CCC1C2` (configuration not stated), the TGI in assay [1], in assay [12], in assay [2], in [3], in assay [4] and in assay [5] was greater than 100 µM throughout. Besides, the TGI in [6], in assay [7], in assay [8], in [13], in [10] and in assay [11] was greater than 100 µM in each case.

As for `C[C@H]1C[C@H](C)c2ccccc2N(C)C1=Nc1ccccc1`, the TGI in assay [1] was greater than 100 µM; in assay [12] it was greater than 100 µM; in assay [2], 56.2 µM; in assay [3], 50 µM; in assay [5], greater than 100 µM; in [6] it was 49.7 µM. Further, the TGI in assay [7] was greater than 100 µM; in assay [8], 44.2 µM; in assay [13] it was 68.7 µM; in [10] it was greater than 100 µM; in assay [11], greater than 100 µM.

For `CCOC(=O)[C@@H]1ON2O[C@H](OC3CCCC3(c3ccccc3)c3ccccc3)C[C@H]3OC(=O)[C@@H]1C32` (some centres not stated), the TGI was greater than 100 µM in [1]; greater than 100 µM in [2]; 65.8 µM in assay [3]; 78.3 µM in assay [4]; greater than 100 µM in assay [5]; greater than 100 µM in assay [6]. For the same molecule, the TGI in assay [7], in [9], in [13], in assay [10] and in assay [11] was greater than 100 µM each time.

Take `O=c1oc2ccccc2nc1/C=C(\O)c1ccc([N+](=O)[O-])cc1`: the TGI in assay [1], in assay [12], in assay [2], in assay [3], in [4] and in [5] was greater than 100 µM throughout. The TGI in assay [6], in assay [7], in assay [8], in assay [9] and in [10] was greater than 100 µM each time.

With `O=C(C[n+]1ccccc1)N=N/C(C(=O)Nc1c(Cl)c(O)c2ccccc2c1O)=C1/C(=O)Oc2cc(O)ccc2C1=O`, the TGI in [1] was 35.3 µM; in [12], 33 µM; in assay [2], 14.7 µM; in [3], 17.3 µM; in assay [4], greater than 100 µM; in assay [5], 19.2 µM. The TGI in assay [6] was 10.4 µM; in assay [7], greater than 100 µM; in [8], 8.1 µM; in assay [9], 7.3 µM; in assay [10], greater than 100 µM; in assay [11], 54.6 µM.

For `Cn1c(NS(=O)(=O)c2ccccc2)nc2ccccc21`, the TGI in assay [1], in assay [2], in assay [3], in assay [4], in assay [5] and in [6] was greater than 100 µM in each case. Moreover, the TGI in assay [7], in assay [9], in assay [13], in assay [10] and in assay [11] was greater than 100 µM in each case.

On to `COC(=O)C1[C@@H](C(=O)OC)C12C=Cc1ccccc1C=C2` (some centres not stated), for which the TGI in [1], in assay [2], in assay [3], in assay [4], in [5] and in [6] was greater than 100 µM throughout. Moreover, the TGI in assay [7], in assay [8], in [9], in [10] and in assay [11] was greater than 100 µM in each case.

For `O=C(c1cccs1)N(C(=S)N1CCN(c2ccccn2)CC1)C1CCCCC1`, the TGI in assay [1] is greater than 100 µM; in assay [2] it was greater than 100 µM; in assay [3] it was greater than 100 µM; in assay [4] it was greater than 100 µM; in assay [5], greater than 100 µM; in assay [6], 46.8 µM. The TGI in assay [7], in assay [8], in [9], in [10] and in assay [11] was greater than 100 µM throughout.

In the case of `O=C(c1ccco1)N(C(=S)N1CCN(c2ccccn2)CC1)C1CCCCC1`, the TGI in assay [1], in [2], in assay [3], in assay [4], in assay [5] and in [6] was greater than 100 µM each time. In addition, the TGI in [7], in assay [8], in assay [9], in [10] and in assay [11] was greater than 100 µM in each case.

For the origin of these results see PubChem BioAssay (NCI).
